{"source": "patent US9926281B2", "about": "(priority 2014, dated 2018)", "key": {"human TACE [1]": {"target": "T1, human TACE (Homo sapiens (Human), UniProt P78536)", "T1 sequence (P78536 whole entry, looked up, change not shown)": "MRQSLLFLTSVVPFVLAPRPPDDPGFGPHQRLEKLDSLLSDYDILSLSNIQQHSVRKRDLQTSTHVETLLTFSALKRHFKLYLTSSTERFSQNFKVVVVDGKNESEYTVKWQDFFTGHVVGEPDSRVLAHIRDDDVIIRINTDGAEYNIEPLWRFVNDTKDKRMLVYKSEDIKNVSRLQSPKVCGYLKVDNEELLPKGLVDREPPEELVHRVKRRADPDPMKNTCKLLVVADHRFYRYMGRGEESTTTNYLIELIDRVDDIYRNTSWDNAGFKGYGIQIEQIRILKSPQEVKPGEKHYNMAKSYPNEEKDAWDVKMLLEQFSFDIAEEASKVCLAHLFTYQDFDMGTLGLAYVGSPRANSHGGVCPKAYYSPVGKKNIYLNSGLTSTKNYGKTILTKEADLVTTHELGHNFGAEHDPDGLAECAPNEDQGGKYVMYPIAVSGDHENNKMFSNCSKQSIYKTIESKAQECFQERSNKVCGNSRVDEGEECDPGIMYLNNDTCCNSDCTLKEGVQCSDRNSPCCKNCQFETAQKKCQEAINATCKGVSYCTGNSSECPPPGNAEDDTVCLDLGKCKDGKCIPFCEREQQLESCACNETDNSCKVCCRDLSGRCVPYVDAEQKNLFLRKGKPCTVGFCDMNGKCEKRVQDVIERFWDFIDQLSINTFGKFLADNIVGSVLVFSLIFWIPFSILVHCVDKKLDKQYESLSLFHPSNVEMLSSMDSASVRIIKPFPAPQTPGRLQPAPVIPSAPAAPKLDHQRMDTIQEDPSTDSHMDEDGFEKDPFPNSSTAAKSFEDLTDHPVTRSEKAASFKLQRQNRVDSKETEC", "details": "read-out: TACE potency IC50"}, "rnADAMTS-5 (1-564-6H)": {"target": "rnADAMTS-5 (1-564-6H) (Rattus norvegicus, UniProt Q6TY19)", "details": "read-out: Rat ADAMTS-5 potency IC50"}, "human ADAMTS-5 [2]": {"target": "T2, human ADAMTS-5 (Homo sapiens (Human), UniProt Q9UNA0)", "T2 sequence (Q9UNA0 262-930)": "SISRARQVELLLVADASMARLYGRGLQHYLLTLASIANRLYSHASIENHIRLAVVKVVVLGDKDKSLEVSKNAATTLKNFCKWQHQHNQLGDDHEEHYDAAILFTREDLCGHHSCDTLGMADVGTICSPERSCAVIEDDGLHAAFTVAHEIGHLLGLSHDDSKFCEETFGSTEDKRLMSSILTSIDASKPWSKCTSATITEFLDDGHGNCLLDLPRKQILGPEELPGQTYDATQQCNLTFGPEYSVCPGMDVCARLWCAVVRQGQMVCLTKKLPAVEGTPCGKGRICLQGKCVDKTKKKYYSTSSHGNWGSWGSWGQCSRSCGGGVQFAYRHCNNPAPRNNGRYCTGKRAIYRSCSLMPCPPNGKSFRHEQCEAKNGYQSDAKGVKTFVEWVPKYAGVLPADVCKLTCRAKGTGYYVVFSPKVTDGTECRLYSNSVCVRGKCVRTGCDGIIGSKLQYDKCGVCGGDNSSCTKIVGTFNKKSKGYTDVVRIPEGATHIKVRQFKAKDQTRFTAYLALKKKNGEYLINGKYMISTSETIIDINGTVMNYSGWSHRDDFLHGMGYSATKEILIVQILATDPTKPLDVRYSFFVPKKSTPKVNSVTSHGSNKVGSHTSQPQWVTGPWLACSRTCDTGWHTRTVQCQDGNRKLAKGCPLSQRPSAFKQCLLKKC", "details": "read-out: hADAMTS-5 potency IC50"}, "human MMP13 [3]": {"target": "T3, human MMP13 (Homo sapiens (Human), UniProt P45452)", "details": "read-out: hMMP-13 potency IC50", "description": "The reaction is initiated by adding to the assay plate 520 MMP-fret substrate XV (10 μL, 4 μM) in the same buffer."}, "human MMP13 [4]": {"target": "T3, human MMP13", "assay": "biochemical", "description": "Human MMP13 is preactivated by incubated the enzyme in the same buffer complemented with 1 mM freshly prepared p-Aminophenylmercuric acetate (AMPA) for 1 hour at 37° C."}, "human ADAMTS-5 [5]": {"target": "T2, human ADAMTS-5", "assay": "biochemical", "description": "Finally, the fluorescence is read on the Envision (Perkin Elmer) after an incubation of 90 min at 37° C."}, "human TACE [6]": {"target": "T1, human TACE", "assay": "biochemical"}}, "note": "Like-named read-outs stand apart in the source and are kept apart here.", "data": [{"smiles": "O=C1NC(=O)C(CCC(=O)N2CCN(c3ccccc3)CC2)(c2ccccc2)N1", "note": "(stereo not drawn) [compound 4, 5-[3-oxo-3-(4-phenylpiperazin-1-yl)propyl]-5-phenyl-imidazolidine-2,4-dione]", "values": [{"measurement": "IC50", "setting": "human TACE [1]", "value": "> 5500", "unit": "nM"}, {"measurement": "IC50", "setting": "rnADAMTS-5 (1-564-6H)", "value": 66, "unit": "nM"}, {"measurement": "IC50", "setting": "human ADAMTS-5 [2]", "value": 114, "unit": "nM"}, {"measurement": "IC50", "setting": "human MMP13 [3]", "value": 2520, "unit": "nM"}]}, {"smiles": "Cc1ccccc1N1CCN(C(=O)CCC2(c3ccccc3)NC(=O)NC2=O)CC1", "note": "(stereo not drawn) [compound 7, 5-[3-[4-(o-tolyl)piperazin-1-yl]-3-oxo-propyl]-5-phenyl-imidazolidine-2,4-dione]", "values": [{"measurement": "IC50", "setting": "human TACE [1]", "value": "> 2930", "unit": "nM"}, {"measurement": "IC50", "setting": "rnADAMTS-5 (1-564-6H)", "value": 272, "unit": "nM"}, {"measurement": "IC50", "setting": "human ADAMTS-5 [2]", "value": 272, "unit": "nM"}, {"measurement": "IC50", "setting": "human MMP13 [3]", "value": "> 20000", "unit": "nM"}]}, {"smiles": "Cc1cccc(N2CCN(C(=O)CCC3(c4ccccc4)NC(=O)NC3=O)CC2)c1C", "note": "(stereo not drawn) [compound 8, 5-[3-[4-(2,3-dimethylphenyl)piperazin-1-yl]-3-oxo-propyl]-5-phenyl-imidazolidine-2,4-dione]", "values": [{"measurement": "IC50", "setting": "human TACE [1]", "value": "> 3220", "unit": "nM"}, {"measurement": "IC50", "setting": "rnADAMTS-5 (1-564-6H)", "value": 157, "unit": "nM"}, {"measurement": "IC50", "setting": "human ADAMTS-5 [2]", "value": 142, "unit": "nM"}, {"measurement": "IC50", "setting": "human MMP13 [3]", "value": "> 20000", "unit": "nM"}]}, {"smiles": "O=C1NC(=O)C(CCC(=O)N2CCN(c3ccc4ccccc4c3)CC2)(c2ccccc2)N1", "note": "(stereo not drawn) [compound 9, 5-[3-[4-(2-naphthyl)piperazin-1-yl]-3-oxo-propyl]-5-phenyl-imidazolidine-2,4-dione]", "values": [{"measurement": "IC50", "setting": "human TACE [1]", "value": 2500, "unit": "nM"}, {"measurement": "IC50", "setting": "rnADAMTS-5 (1-564-6H)", "value": 331, "unit": "nM"}, {"measurement": "IC50", "setting": "human ADAMTS-5 [2]", "value": 316, "unit": "nM"}, {"measurement": "IC50", "setting": "human MMP13 [3]", "value": 1480, "unit": "nM"}]}, {"smiles": "O=C1NC(=O)C(CCC(=O)N2CCN(c3ccc(Cl)c(F)c3)CC2)(c2ccccc2)N1", "note": "(stereo not drawn) [compound 10, 5-[3-[4-(4-chloro-3-fluoro-phenyl)piperazin-1-yl]-3-oxo-propyl]-5-phenyl-imidazolidine-2,4-dione]", "values": [{"measurement": "IC50", "setting": "human TACE [1]", "value": "> 2790", "unit": "nM"}, {"measurement": "IC50", "setting": "rnADAMTS-5 (1-564-6H)", "value": 41, "unit": "nM"}, {"measurement": "IC50", "setting": "human ADAMTS-5 [2]", "value": 56, "unit": "nM"}, {"measurement": "IC50", "setting": "human MMP13 [3]", "value": 285, "unit": "nM"}]}, {"smiles": "Cc1cccc(N2CCN(C(=O)CCC3(C)NC(=O)NC3=O)CC2)c1C", "note": "(stereo not drawn) [compound 11, 5-[3-[4-(2,3-dimethylphenyl)piperazin-1-yl]-3-oxo-propyl]-5-methyl-imidazolidine-2,4-dione]", "values": [{"measurement": "IC50", "setting": "human TACE [1]", "value": "> 20000", "unit": "nM"}, {"measurement": "IC50", "setting": "rnADAMTS-5 (1-564-6H)", "value": 1170, "unit": "nM"}, {"measurement": "IC50", "setting": "human ADAMTS-5 [2]", "value": 988, "unit": "nM"}, {"measurement": "IC50", "setting": "human MMP13 [3]", "value": "> 20000", "unit": "nM"}]}, {"smiles": "Cc1cc(Cl)ccc1N1CCN(C(=O)CCC2(c3ccccc3)NC(=O)NC2=O)CC1", "note": "(stereo not drawn) [compound 13, 5-[3-[4-(4-chloro-2-methyl-phenyl)piperazin-1-yl]-3-oxo-propyl]-5-phenyl-imidazolidine-2,4-dione]", "values": [{"measurement": "IC50", "setting": "human TACE [1]", "value": 1170, "unit": "nM"}, {"measurement": "IC50", "setting": "rnADAMTS-5 (1-564-6H)", "value": 966, "unit": "nM"}, {"measurement": "IC50", "setting": "human ADAMTS-5 [2]", "value": 836, "unit": "nM"}, {"measurement": "IC50", "setting": "human MMP13 [3]", "value": "> 20000", "unit": "nM"}]}, {"smiles": "O=C1NC(=O)C(CCC(=O)N2CCN(c3ccc4cnccc4c3)CC2)(c2ccccc2)N1", "note": "(stereo not drawn) [compound 14, 5-[3-[4-(6-isoquinolyl)piperazin-1-yl]-3-oxo-propyl]-5-phenyl-imidazolidine-2,4-dione]", "values": [{"measurement": "IC50", "setting": "human TACE [1]", "value": "> 4000", "unit": "nM"}, {"measurement": "IC50", "setting": "rnADAMTS-5 (1-564-6H)", "value": 784, "unit": "nM"}, {"measurement": "IC50", "setting": "human ADAMTS-5 [2]", "value": 897, "unit": "nM"}, {"measurement": "IC50", "setting": "human MMP13 [3]", "value": 366, "unit": "nM"}]}, {"smiles": "Cc1ccc(Cl)cc1N1CCN(C(=O)CCC2(C)NC(=O)NC2=O)CC1", "note": "(stereo not drawn) [compound 16, 5-[3-[4-(5-chloro-2-methyl-phenyl)piperazin-1-yl]-3-oxo-propyl]-5-methyl-imidazolidine-2,4-dione]", "values": [{"measurement": "IC50", "setting": "human TACE [1]", "value": 457, "unit": "nM"}, {"measurement": "IC50", "setting": "rnADAMTS-5 (1-564-6H)", "value": 329, "unit": "nM"}, {"measurement": "IC50", "setting": "human ADAMTS-5 [2]", "value": 301, "unit": "nM"}, {"measurement": "IC50", "setting": "human MMP13 [3]", "value": "> 20000", "unit": "nM"}]}, {"smiles": "Cc1c(Cl)cccc1N1CCN(C(=O)CCC2(C)NC(=O)NC2=O)CC1", "note": "(stereo not drawn) [compound 18, 5-[3-[4-(3-chloro-2-methyl-phenyl)piperazin-1-yl]-3-oxo-propyl]-5-methyl-imidazolidine-2,4-dione]", "values": [{"measurement": "IC50", "setting": "human TACE [1]", "value": "> 4000", "unit": "nM"}, {"measurement": "IC50", "setting": "rnADAMTS-5 (1-564-6H)", "value": 930, "unit": "nM"}, {"measurement": "IC50", "setting": "human ADAMTS-5 [2]", "value": 675, "unit": "nM"}, {"measurement": "IC50", "setting": "human MMP13 [3]", "value": "> 20000", "unit": "nM"}]}, {"smiles": "O=C1NC(=O)C(CCC(=O)N2CCN(c3ccccc3Cl)CC2)(c2ccccc2)N1", "note": "(stereo not drawn) [compound 20, 5-[3-[4-(2-chlorophenyl)piperazin-1-yl]-3-oxo-propyl]-5-phenyl-imidazolidine-2,4-dione]", "values": [{"measurement": "IC50", "setting": "human TACE [1]", "value": "> 4000", "unit": "nM"}, {"measurement": "IC50", "setting": "rnADAMTS-5 (1-564-6H)", "value": 1270, "unit": "nM"}, {"measurement": "IC50", "setting": "human ADAMTS-5 [2]", "value": 1280, "unit": "nM"}, {"measurement": "IC50", "setting": "human MMP13 [3]", "value": "> 20000", "unit": "nM"}]}, {"smiles": "Cc1c(Cl)cccc1N1CCN(C(=O)CCC2(c3ccccc3)NC(=O)NC2=O)CC1", "note": "(stereo not drawn) [compound 21, 5-[3-[4-(3-chloro-2-methyl-phenyl)piperazin-1-yl]-3-oxo-propyl]-5-phenyl-imidazolidine-2,4-dione]", "values": [{"measurement": "IC50", "setting": "human TACE [1]", "value": 2060, "unit": "nM"}, {"measurement": "IC50", "setting": "rnADAMTS-5 (1-564-6H)", "value": 162, "unit": "nM"}, {"measurement": "IC50", "setting": "human ADAMTS-5 [2]", "value": 166, "unit": "nM"}, {"measurement": "IC50", "setting": "human MMP13 [3]", "value": "> 20000", "unit": "nM"}]}, {"smiles": "C[C@H]1CN(C(=O)CCC2(C)NC(=O)NC2=O)CCN1c1ccc(Cl)c(F)c1", "note": "(stereo partly drawn) [compound 164, 5-[3-[(3S)-4-(4-chloro-3-fluoro-phenyl)-3-methyl-piperazin-1-yl]-3-oxo-propyl]-5-methyl-imidazolidine-2,4-dione]", "values": [{"measurement": "IC50", "setting": "human MMP13 [4]", "value": "> 20000", "unit": "nM"}, {"measurement": "IC50", "setting": "human ADAMTS-5 [5]", "value": 236, "unit": "nM"}, {"measurement": "IC50", "setting": "human TACE [6]", "value": "> 20000", "unit": "nM"}]}, {"smiles": "C[C@H]1CN(C(=O)CCC2(C3CC3)NC(=O)NC2=O)CCN1c1cccc2c1cnn2C", "note": "(stereo partly drawn) [compound 333, 5-cyclopropyl-5-[3-[(3S)-3-methyl-4-(1-methylindazol-4-yl)piperazin-1-yl]-3-oxo-propyl]imidazolidine-2,4-dione]", "values": [{"measurement": "IC50", "setting": "human ADAMTS-5 [5]", "value": 3120, "unit": "nM"}, {"measurement": "IC50", "setting": "human TACE [6]", "value": "> 20000", "unit": "nM"}]}, {"smiles": "C[C@H]1CN(C(=O)CCC2(c3ccc(C(F)(F)F)nc3)NC(=O)NC2=O)CCN1c1cc(F)cc(F)c1", "note": "(stereo partly drawn) [compound 335, 5-[3-[(3S)-4-(3,5-difluorophenyl)-3-methyl-piperazin-1-yl]-3-oxo-propyl]-5-[6-(trifluoromethyl)-3-pyridyl]imidazolidine-2,4-dione]", "values": [{"measurement": "IC50", "setting": "human ADAMTS-5 [5]", "value": 78, "unit": "nM"}, {"measurement": "IC50", "setting": "human TACE [6]", "value": "> 4000", "unit": "nM"}]}, {"smiles": "COCC1(CC(C)C(=O)N2CCN(c3cncc(F)c3)[C@@H](C)C2)NC(=O)NC1=O", "note": "(stereo partly drawn) [compound 364, 5-[3-[(3S)-4-(5-fluoro-3-pyridyl)-3-methyl-piperazin-1-yl]-2-methyl-3-oxo-propyl]-5-(methoxymethyl)imidazolidine-2,4-dione]", "values": [{"measurement": "IC50", "setting": "human ADAMTS-5 [5]", "value": 92, "unit": "nM"}, {"measurement": "IC50", "setting": "human TACE [6]", "value": "> 20000", "unit": "nM"}]}]}
